# Like-named read-outs stand apart in the source and are kept apart here.
# What was measured:
# Test in all cases: TGFα-shedding assay-based GPCR screening with chimeric Gα subunit proteins
# Assay type in all cases: cell-based
# 348 GPCRs [1] = target: T1, 348 GPCRs (Homo sapiens, UniProt O15354); details: 10µM, Favipiravir 100μM
# T1 construct: expressed in transfected cells; host or cells: HEK293A
# T1 sequence (O15354 27-613): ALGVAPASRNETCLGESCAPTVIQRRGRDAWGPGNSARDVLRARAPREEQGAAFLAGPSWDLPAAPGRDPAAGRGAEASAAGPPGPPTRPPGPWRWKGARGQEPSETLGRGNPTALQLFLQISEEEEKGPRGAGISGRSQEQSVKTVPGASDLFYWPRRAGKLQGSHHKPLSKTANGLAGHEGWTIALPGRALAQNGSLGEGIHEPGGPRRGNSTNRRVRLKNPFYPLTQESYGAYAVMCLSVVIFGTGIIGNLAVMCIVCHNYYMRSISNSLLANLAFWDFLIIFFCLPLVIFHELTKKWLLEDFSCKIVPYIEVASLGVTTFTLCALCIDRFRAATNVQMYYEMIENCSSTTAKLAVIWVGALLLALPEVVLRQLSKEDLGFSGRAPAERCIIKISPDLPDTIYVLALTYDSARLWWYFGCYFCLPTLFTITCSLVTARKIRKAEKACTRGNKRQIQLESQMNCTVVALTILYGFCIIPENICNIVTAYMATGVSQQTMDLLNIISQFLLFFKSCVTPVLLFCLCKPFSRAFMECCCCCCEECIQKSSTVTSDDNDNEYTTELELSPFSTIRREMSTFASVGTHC
# 348 GPCRs [2] = target: T2, 348 GPCRs (Homo sapiens, UniProt P08172)
# T2 sequence (P08172 1-466): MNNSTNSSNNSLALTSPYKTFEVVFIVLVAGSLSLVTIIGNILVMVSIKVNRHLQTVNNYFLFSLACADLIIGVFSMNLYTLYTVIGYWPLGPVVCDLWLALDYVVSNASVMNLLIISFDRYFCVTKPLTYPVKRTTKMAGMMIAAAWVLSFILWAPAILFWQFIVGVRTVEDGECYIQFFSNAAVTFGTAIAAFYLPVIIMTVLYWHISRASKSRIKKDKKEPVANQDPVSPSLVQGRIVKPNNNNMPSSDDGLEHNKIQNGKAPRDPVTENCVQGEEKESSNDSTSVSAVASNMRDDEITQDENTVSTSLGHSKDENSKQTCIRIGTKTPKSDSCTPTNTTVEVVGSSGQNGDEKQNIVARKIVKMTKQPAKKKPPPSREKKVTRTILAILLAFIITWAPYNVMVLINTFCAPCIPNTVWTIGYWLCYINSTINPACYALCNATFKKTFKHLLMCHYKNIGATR
# 348 GPCRs [3] = target: T3, 348 GPCRs (Homo sapiens, UniProt P23945); details: 10µM, Favipiravir 100μM
# T3 construct: expressed in transfected cells; host or cells: HEK293A
# T3 sequence (P23945 18-695): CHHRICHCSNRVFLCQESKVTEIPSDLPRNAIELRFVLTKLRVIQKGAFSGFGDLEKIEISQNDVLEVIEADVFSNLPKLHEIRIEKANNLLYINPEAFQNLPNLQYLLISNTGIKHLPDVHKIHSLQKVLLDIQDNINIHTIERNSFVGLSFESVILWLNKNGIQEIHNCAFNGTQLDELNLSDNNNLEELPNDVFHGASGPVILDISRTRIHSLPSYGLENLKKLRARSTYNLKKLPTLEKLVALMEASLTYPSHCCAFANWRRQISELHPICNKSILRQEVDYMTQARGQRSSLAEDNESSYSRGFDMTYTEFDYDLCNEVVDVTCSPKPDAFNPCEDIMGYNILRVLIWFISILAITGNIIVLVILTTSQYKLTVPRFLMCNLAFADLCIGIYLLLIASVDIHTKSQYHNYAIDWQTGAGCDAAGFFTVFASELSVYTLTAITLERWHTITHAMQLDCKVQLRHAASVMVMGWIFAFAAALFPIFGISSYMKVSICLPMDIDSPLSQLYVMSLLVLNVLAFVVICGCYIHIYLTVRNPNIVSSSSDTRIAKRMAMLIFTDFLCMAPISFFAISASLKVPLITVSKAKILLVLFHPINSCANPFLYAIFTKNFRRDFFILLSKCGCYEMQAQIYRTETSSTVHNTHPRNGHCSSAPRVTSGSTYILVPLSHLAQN
# 348 GPCRs [4] = target: T4, 348 GPCRs (Homo sapiens, UniProt P35408); details: 10µM, Favipiravir 100μM
# T4 construct: expressed in transfected cells; host or cells: HEK293A
# T4 sequence (P35408 whole entry): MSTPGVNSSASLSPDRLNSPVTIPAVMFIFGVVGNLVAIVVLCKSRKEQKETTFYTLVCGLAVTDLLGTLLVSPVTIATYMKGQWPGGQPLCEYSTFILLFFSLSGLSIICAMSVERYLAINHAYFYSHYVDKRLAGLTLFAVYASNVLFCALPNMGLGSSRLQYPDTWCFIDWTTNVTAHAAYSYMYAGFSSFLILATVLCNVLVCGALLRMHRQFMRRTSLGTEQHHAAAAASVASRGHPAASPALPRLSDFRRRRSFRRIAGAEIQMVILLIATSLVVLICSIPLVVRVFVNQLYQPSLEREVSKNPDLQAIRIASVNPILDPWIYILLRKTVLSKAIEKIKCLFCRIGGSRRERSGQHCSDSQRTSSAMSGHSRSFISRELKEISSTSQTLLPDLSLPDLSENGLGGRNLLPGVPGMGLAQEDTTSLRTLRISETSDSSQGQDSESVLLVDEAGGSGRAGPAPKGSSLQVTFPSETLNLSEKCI
# 348 GPCRs [5] = target: T5, 348 GPCRs (Homo sapiens, UniProt P41231)
# T5 construct: expressed in transfected cells; host or cells: HEK293A
# T5 sequence (P41231 whole entry): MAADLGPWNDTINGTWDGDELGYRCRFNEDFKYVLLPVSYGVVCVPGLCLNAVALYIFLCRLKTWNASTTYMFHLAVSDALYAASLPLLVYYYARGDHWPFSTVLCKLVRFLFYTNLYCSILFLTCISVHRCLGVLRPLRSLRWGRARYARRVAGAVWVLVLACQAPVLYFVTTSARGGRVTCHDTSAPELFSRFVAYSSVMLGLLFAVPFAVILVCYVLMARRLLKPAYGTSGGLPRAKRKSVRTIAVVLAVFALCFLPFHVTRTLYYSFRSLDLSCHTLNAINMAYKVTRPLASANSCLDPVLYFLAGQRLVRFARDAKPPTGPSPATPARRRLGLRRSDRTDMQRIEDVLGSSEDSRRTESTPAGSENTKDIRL
# 348 GPCRs [6] = target: T6, 348 GPCRs (Homo sapiens, UniProt Q8IZP9)
# T6 construct: expressed in transfected cells; host or cells: HEK293A
# T6 sequence (Q8IZP9 38-1017): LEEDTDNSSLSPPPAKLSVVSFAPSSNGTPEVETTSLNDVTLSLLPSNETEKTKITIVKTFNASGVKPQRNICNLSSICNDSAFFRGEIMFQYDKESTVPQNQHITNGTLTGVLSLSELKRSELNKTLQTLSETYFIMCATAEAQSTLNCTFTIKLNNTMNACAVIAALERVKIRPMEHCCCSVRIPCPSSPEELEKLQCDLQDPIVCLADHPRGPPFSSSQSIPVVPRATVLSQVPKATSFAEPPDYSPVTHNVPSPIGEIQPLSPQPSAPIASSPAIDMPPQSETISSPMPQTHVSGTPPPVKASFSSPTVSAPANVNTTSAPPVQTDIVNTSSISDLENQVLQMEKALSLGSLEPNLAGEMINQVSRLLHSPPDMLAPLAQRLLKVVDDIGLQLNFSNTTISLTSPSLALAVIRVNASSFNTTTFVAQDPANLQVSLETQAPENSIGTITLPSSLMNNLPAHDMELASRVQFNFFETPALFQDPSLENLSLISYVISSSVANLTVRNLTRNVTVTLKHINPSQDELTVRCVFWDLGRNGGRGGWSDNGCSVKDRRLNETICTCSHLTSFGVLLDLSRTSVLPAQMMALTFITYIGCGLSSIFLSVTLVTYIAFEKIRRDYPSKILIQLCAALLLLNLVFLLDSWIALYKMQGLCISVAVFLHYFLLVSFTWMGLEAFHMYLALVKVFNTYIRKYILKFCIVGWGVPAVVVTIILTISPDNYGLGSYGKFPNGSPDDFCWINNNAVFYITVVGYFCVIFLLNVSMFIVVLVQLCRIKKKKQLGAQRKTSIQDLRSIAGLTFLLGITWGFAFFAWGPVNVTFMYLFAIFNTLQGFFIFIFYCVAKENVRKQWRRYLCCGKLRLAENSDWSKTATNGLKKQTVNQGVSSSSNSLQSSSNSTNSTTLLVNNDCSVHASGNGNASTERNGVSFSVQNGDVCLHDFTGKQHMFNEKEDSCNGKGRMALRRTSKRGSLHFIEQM
# [7] = GPR37 (G protein-coupled receptor 37), read-out: % GPCR activation compared to TPA
# [8] = GPCR M2 (Muscarinic acetylcholine receptor M2), read-out: % GPCR activation compared to TPA
# [9] = FSHR (follicle stimulating hormone receptor), read-out: % GPCR activation compared to TPA
# [10] = EP4 (prostaglandin E receptor 4), read-out: % GPCR activation compared to TPA
# [11] = GPCR P2Y2 (purinergic receptor P2Y, G-protein coupled, 2), read-out: % GPCR activation compared to TPA
# [12] = GPCR GPR64 (G protein-coupled receptor 64), read-out: % GPCR activation compared to TPA
# [13] = read-out: % GPCR activation compared to TPA, GPR37 (G protein-coupled receptor 37)
# [14] = read-out: % GPCR activation compared to TPA, GPCR M2 (Muscarinic acetylcholine receptor M2)
# [15] = read-out: % GPCR activation compared to TPA, FSHR (follicle stimulating hormone receptor)
# [16] = read-out: % GPCR activation compared to TPA, EP4 (prostaglandin E receptor 4)
# [17] = read-out: % GPCR activation compared to TPA, GPCR P2Y2 (purinergic receptor P2Y, G-protein coupled, 2)
# [18] = read-out: % GPCR activation compared to TPA, GPCR GPR64 (G protein-coupled receptor 64)
activation at 10 µM (348 GPCRs [1]; [7]) [%],activation at 10 µM (348 GPCRs [2]; [8]) [%],activation at 100 µM (348 GPCRs [3]; [9]) [%],activation at 10 µM (348 GPCRs [4]; [10]) [%],activation at 10 µM (348 GPCRs [5]; [11]) [%],activation at 10 µM (348 GPCRs [6]; [12]) [%],"activation at 100 µM (348 GPCRs [2]; GPCR M2 (Muscarinic acetylcholine receptor M2), 100μM, read-out: % GPCR activation compared to TPA) [%]","activation at 100 µM (348 GPCRs [5]; GPCR P2Y2 (purinergic receptor P2Y, G-protein coupled, 2), 100μM, read-out: % GPCR activation compared to TPA) [%]","activation at 100 µM (348 GPCRs [6]; GPCR GPR64 (G protein-coupled receptor 64), 100μM, read-out: % GPCR activation compared to TPA) [%]",SMILES,activation at 10 µM (348 GPCRs [1]; [13]) [%],activation at 10 µM (348 GPCRs [2]; [14]) [%],activation at 100 µM (348 GPCRs [3]; [15]) [%],activation at 10 µM (348 GPCRs [4]; [16]) [%],activation at 10 µM (348 GPCRs [5]; [17]) [%],activation at 10 µM (348 GPCRs [6]; [18]) [%]
-2.53,4.87,1.25,-2.87,-17.2,-4.34,,,,N#C[C@@]1(c2ccc3c(N)ncnn23)O[C@H](CO)[C@@H](O)[C@H]1O [GS441524],,,,,,
-0.655,,3.61,-1.55,,,2.32,-23,-2.31,"NC(=O)c1nc(F)cnc1O [favipiravir, 6-fluoro-3-hydroxy-2-pyrazinecarboxamide]",,,,,,
-2.05,0.695,0.229,0.931,-58.1,-5.62,,,,CC(C)C(=O)OC[C@H]1O[C@@H](n2ccc(NO)nc2=O)[C@H](O)[C@@H]1O [molnupiravir],,,,,,
,,,,,,,,,CCC(CC)COC(=O)[C@H](C)N[P@](=O)(OC[C@H]1O[C@@](C#N)(c2ccc3c(N)ncnn23)[C@H](O)[C@@H]1O)Oc1ccccc1 [remdesivir],-0.881,6,2.23,4.74,-6.22,-4.08
,,,,,,,,,CC(C)OC(=O)[C@H](C)N[P@](=O)(OC[C@H]1O[C@@H](n2ccc(=O)[nH]c2=O)[C@](C)(F)[C@@H]1O)Oc1ccccc1 [sofosbuvir],-2.61,1.35,2.02,0.58,-41.7,-7.7

# Reference: article PMC10175918 (Communications Biology, 2023)
